Data on two molecules can be found in paper PMC12261219, “Comparative Evaluation of Thiol- and Amine-Conjugating Moieties for Endogenous Albumin Binding after Intravenous Administration” (ACS Pharmacology & Translational Science, 2025).

One data set deals with T1, albumin (Homo sapiens, UniProt P02768).
T1 construct: purchased Sigma-Aldrich A8763
Further details: method as in Barbas et al. To be noted: equimolar DFSA/albumin ratios; ref Barbas et al.; cited from earlier work.

Data set [1] can be described thus: Stability of oxaliplatin in PB at pH 7.4 (HPLC). The format is physicochemical. Particulars: pH 7.4, 20 °C. The procedure:
The samples were incubated at 20 °C and measured over 25 h. […] RP-HPLC runs were performed using a Waters Acquity UPLC HSS T3 column (100 Å, 1.8 μm, 3.0 mm × 50 mm) on a Dionex Thermo Scientific UltiMate 3000 HPLC system, equipped with a HPG-3400RS binary pump and a DAD-3000RS UV–vis detector. Chromatograms were evaluated at a wavelength of 230 nm. Milli-Q water (mobile phase A) and acetonitrile (mobile phase B), both containing 0.1% TFA, were used as eluents. The flow rate was consistent at 0.6 mL/min for all measurements using the following gradient: 0–0.5 min A 99:1 B, 0.5–5.5 min linear gradient to A 1:99 B, 5.5–6.5 min A 1:99 B, 6.5–9.2 min A 99:1 B.

Details of data set [2]: method as in Schueffl et al. Particulars: oxaliplatin data used from earlier paper, ref Schueffl et al., cited from earlier work.
The next data set relates to CT26 colon cancer cells. On the set-up: method as in Schueffl et al. To be noted: already described in earlier studies; ref Schueffl et al.; cited from earlier work.
Setting [3] is: serum platinum, i.v. 9 mg/kg oxaliplatin.

T1 sequence (P02768 25-609): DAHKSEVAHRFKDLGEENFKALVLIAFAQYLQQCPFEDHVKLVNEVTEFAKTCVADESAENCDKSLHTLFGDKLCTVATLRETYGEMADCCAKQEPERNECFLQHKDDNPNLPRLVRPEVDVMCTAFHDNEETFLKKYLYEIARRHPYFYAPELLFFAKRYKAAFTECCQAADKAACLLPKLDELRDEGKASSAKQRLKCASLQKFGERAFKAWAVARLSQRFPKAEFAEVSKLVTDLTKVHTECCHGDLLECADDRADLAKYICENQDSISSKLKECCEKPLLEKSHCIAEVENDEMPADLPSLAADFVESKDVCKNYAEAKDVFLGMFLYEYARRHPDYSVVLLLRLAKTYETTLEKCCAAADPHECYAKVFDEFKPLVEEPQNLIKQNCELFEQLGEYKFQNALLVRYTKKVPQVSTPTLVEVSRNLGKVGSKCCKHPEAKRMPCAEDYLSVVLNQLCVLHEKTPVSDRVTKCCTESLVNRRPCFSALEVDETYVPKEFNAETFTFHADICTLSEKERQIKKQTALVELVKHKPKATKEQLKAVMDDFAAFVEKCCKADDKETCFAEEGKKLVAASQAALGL

With `O=C(O)C1=CCCCC1S(=O)(=O)Nc1ccc(F)cc1F` (stereo not shown) [DFSA, 6-(N-(2,4-difluorophenyl)-sulfamoyl)-cyclohex-1-ene-1-carboxylic acid], the “Albumin binding after 24 h” value on albumin is “less than 25%”.
For `O=C1[O][Pt]2([NH][C@@H]3CCCC[C@H]3[NH]2)[O]C1=O` [oxaliplatin], the “Hydrolysis after 25 h” value in data set [1] was around 15%. Besides, in data set [2] (setting [3]), the AUCPt_0-24 was 26.6 mg·h/kg and the “AUCPt_0-∞” value is 37.5 mg·h/kg. Further, in data set [2] (serum platinum, tmax=0.08 h), the Cmax is 6.17 mg/kg. Besides, the Half-life in data set [2] (terminal half-life) is on record as 14.3 h. Further, in data set [2] (terminal phase), the Vz is 2.42 kg/kg. The “Percentage of AUCPt_0-∞ extrapolated from tlast to infinity” value in data set [2] (tlast=24 h) is on record as 29.0%. In addition, the CL in data set [2] (total body clearance) is reported as 0.118 kg/h/kg. The “Effect on overall survival in the CT26 model” value in the data set on CT26 colon cancer cells is on record as “does not lead to prolonged overall survival”.
